Assay: FIH Study Part A dose escalation: adverse events
Source text: TEAEs and TRAEs from the clinical study database were coded to system organ class and preferred term using MedDRA version 22.0 and SAEs from the centralized safety database were coded using MedDRA version 25.0. The severity of adverse events was graded according to the NCI CTCAE version 5.0.

For O=C1CC[C@H](N2Cc3cc(N4CCN(CC5CCN(c6ccc([C@@H]7c8ccc(O)cc8CC[C@@H]7c7ccccc7)cc6)CC5)CC4)ccc3C2=O)C(=O)N1 [Compound A, (S)-3-(5-(4-((1-(4-((1R,2S)-6-hydroxy-2-phenyl-1,2,3,4-tetrahydronaphthalen-1-yl)phenyl)piperidin-4-yl)methyl)piperazin-1-yl)-1-oxoisoindolin-2-yl)piperidine-2,6-dione], the “TRAE Nausea” value (200 mg (N=8)) was 2 n, the “TRAE Vomiting” value (200 mg (N=8)) was 1 n and the “TEAE Alanine aminotransferase increased” value (360 mg (N=15)) was 1 n. For the same compound, the “TEAE Arthralgia” value (360 mg (N=15)) was 2 n, the “TEAE Aspartate aminotransferase increased” value (360 mg (N=15)) was 0 n and the “TEAE Back pain” value (360 mg (N=15)) was 2 n. For the same compound, the “TEAE Constipation” value (360 mg (N=15)) was 5 n, the “TEAE Decreased appetite” value (360 mg (N=15)) was 4 n and the “TEAE Diarrhea” value (360 mg (N=15)) was 4 n. The “TEAE Dizziness” value (360 mg (N=15)) was 2 n, the “TEAE Fatigue” value (360 mg (N=15)) was 4 n and the “TEAE Headache” value (360 mg (N=15)) was 4 n. The “TEAE Hot flush” value (360 mg (N=15)) was 2 n, the “TEAE Hyperglycemia” value (360 mg (N=15)) was 2 n and the “TEAE Insomnia” value (360 mg (N=15)) was 1 n. For the same compound, the “TEAE Nausea” value (360 mg (N=15)) was 4 n, the “TEAE Pain in extremity” value (360 mg (N=15)) was 1 n and the “TEAE Vomiting” value (360 mg (N=15)) was 5 n. For the same compound, the “TRAE Arthralgia” value (360 mg (N=15)) was 0 n, the “TRAE Constipation” value (360 mg (N=15)) was 3 n and the “TRAE Decreased appetite” value (360 mg (N=15)) was 2 n. The “TRAE Fatigue” value (360 mg (N=15)) was 3 n, the “TRAE Hot flush” value (360 mg (N=15)) was 1 n and the “TRAE Nausea” value (360 mg (N=15)) was 3 n. For the same compound, the “TRAE Vomiting” value (360 mg (N=15)) was 2 n, the “TEAE Alanine aminotransferase increased” value (500 mg (N=22)) was 2 n and the “TEAE Arthralgia” value (500 mg (N=22)) was 4 n. The “TEAE Aspartate aminotransferase increased” value (500 mg (N=22)) was 1 n, the “TEAE Back pain” value (500 mg (N=22)) was 6 n and the “TEAE Constipation” value (500 mg (N=22)) was 10 n. For the same compound, the “TEAE Decreased appetite” value (500 mg (N=22)) was 2 n, the “TEAE Diarrhea” value (500 mg (N=22)) was 3 n and the “TEAE Dizziness” value (500 mg (N=22)) was 2 n. The “TEAE Fatigue” value (500 mg (N=22)) was 14 n, the “TEAE Headache” value (500 mg (N=22)) was 3 n and the “TEAE Hot flush” value (500 mg (N=22)) was 5 n. For the same compound, the “TEAE Hyperglycemia” value (500 mg (N=22)) was 5 n, the “TEAE Insomnia” value (500 mg (N=22)) was 4 n and the “TEAE Nausea” value (500 mg (N=22)) was 9 n. The “TEAE Pain in extremity” value (500 mg (N=22)) was 5 n, the “TEAE Vomiting” value (500 mg (N=22)) was 4 n and the “TRAE Arthralgia” value (500 mg (N=22)) was 2 n. The “TRAE Constipation” value (500 mg (N=22)) was 3 n, the “TRAE Decreased appetite” value (500 mg (N=22)) was 1 n and the “TRAE Fatigue” value (500 mg (N=22)) was 9 n. The “TRAE Hot flush” value (500 mg (N=22)) was 5 n, the “TRAE Nausea” value (500 mg (N=22)) was 7 n and the “TRAE Vomiting” value (500 mg (N=22)) was 3 n. The “TEAE Alanine aminotransferase increased” value (700 mg (N=4)) was 0 n, the “TEAE Arthralgia” value (700 mg (N=4)) was 0 n and the “TEAE Aspartate aminotransferase increased” value (700 mg (N=4)) was 2 n. For the same compound, the “TEAE Back pain” value (700 mg (N=4)) was 2 n, the “TEAE Constipation” value (700 mg (N=4)) was 1 n and the “TEAE Decreased appetite” value (700 mg (N=4)) was 1 n. For the same compound, the “TEAE Diarrhea” value (700 mg (N=4)) was 1 n, the “TEAE Dizziness” value (700 mg (N=4)) was 2 n and the “TEAE Fatigue” value (700 mg (N=4)) was 2 n. For the same compound, the “TEAE Headache” value (700 mg (N=4)) was 1 n, the “TEAE Hot flush” value (700 mg (N=4)) was 0 n and the “TEAE Hyperglycemia” value (700 mg (N=4)) was 1 n. The “TEAE Insomnia” value (700 mg (N=4)) was 1 n, the “TEAE Nausea” value (700 mg (N=4)) was 2 n and the “TEAE Pain in extremity” value (700 mg (N=4)) was 0 n. For the same compound, the “TEAE Vomiting” value (700 mg (N=4)) was 1 n, the “TRAE Arthralgia” value (700 mg (N=4)) was 0 n and the “TRAE Constipation” value (700 mg (N=4)) was 0 n. The “TRAE Decreased appetite” value (700 mg (N=4)) was 0 n, the “TRAE Fatigue” value (700 mg (N=4)) was 2 n and the “TRAE Hot flush” value (700 mg (N=4)) was 0 n. For the same compound, the “TRAE Nausea” value (700 mg (N=4)) was 1 n, the “TRAE Vomiting” value (700 mg (N=4)) was 0 n and the “Grade 4 or Grade 5 TRAEs” value (6 Jun 2023) was “no Grade 4 or Grade 5 TRAEs”. The “Grade 1 TEAEs” value (6 Jun 2023, N=83) was 34.9%, the “Grade 1 TRAEs” value (6 Jun 2023, N=83) was 41.0% and the “Grade 2 TEAEs” value (6 Jun 2023, N=83) was 41.0%. For the same compound, the “Grade 2 TRAEs” value (6 Jun 2023, N=83) was 24.1%, the “Grade 3 TEAEs” value (6 Jun 2023, N=83) was 16.9% and the “Grade 3 TRAE electrocardiogram QT prolonged” value (6 Jun 2023, N=83) was 2 patients. The “Grade 4 TEAEs” value (6 Jun 2023, N=83) was 2.4%, the “Grade 5 TEAE” value (6 Jun 2023, N=83) was 1.2% and the “TEAE of Grade ≥3” value (6 Jun 2023, N=83) was 20.5%. The “patients with Grade 3 TRAEs” value (6 Jun 2023, N=83) was 7.2%, the “patients with at least 1 TEAE” value (6 Jun 2023, N=83) was 96.4% and the “patients with at least 1 TRAE” value (6 Jun 2023, N=83) was 72.3%. For the same compound, the SAEs (6 Jun 2023, N=83, 11) was 13.3%, the deaths (33 of 83 participants) was 39.8% and the “SAE Procedural pain, Grade” value (Patient 1, 30 mg QD, onset day 30, Not related) was 3. The “SAE Humerus fracture, Grade” value (Patient 2, 250 mg BID, onset day 59, Not related) was 3, the “SAE Embolism venous, Grade” value (Patient 3, 360 mg QD, onset day 42, Possibly related, SUSAR) was 3 and the “SAE Colitis, Grade” value (Patient 4, 200 mg QD) was 1. The “SAE Neutrophil count decreased, Grade” value (Patient 4, 200 mg QD) was 4, the “SAE Stomatitis, Grade” value (Patient 4, 200 mg QD, onset day 79, Not related) was 3 and the “SAE Malignant pleural effusion, Grade” value (Patient 5, 250 mg BID, onset day 10) was 3. The “SAE Cardiac arrest, Grade” value (Patient 5, 250 mg BID, onset day 26, Not related) was 5, the “SAE Embolism, Grade” value (Patient 6, 360 mg QD, onset day 54, Unlikely related) was 3 and the “SAE Hypoglycemia, Grade” value (Patient 7, 500 mg QD, onset day 49, Not related) was 4. For the same compound, the “SAE Acute kidney injury, Grade” value (Patient 8, 100 mg QD, onset day 118, Not related) was 3, the “TEAE Alanine aminotransferase increased” value (Total (N=78)) was 8 n and the “TEAE Arthralgia” value (Total (N=78)) was 14 n. For the same compound, the “TEAE Aspartate aminotransferase increased” value (Total (N=78)) was 11 n, the “TEAE Back pain” value (Total (N=78)) was 13 n and the “TEAE Constipation” value (Total (N=78)) was 24 n. The “TEAE Decreased appetite” value (Total (N=78)) was 12 n, the “TEAE Diarrhea” value (Total (N=78)) was 13 n and the “TEAE Dizziness” value (Total (N=78)) was 8 n. For the same compound, the “TEAE Fatigue” value (Total (N=78)) was 26 n, the “TEAE Headache” value (Total (N=78)) was 13 n and the “TEAE Hot flush” value (Total (N=78)) was 11 n. The “TEAE Hyperglycemia” value (Total (N=78)) was 10 n, the “TEAE Insomnia” value (Total (N=78)) was 9 n and the “TEAE Nausea” value (Total (N=78)) was 26 n. The “TEAE Pain in extremity” value (Total (N=78)) was 10 n, the “TEAE Vomiting” value (Total (N=78)) was 14 n and the “TRAE Arthralgia” value (Total (N=78)) was 8 n. For the same compound, the “TRAE Constipation” value (Total (N=78)) was 10 n, the “TRAE Decreased appetite” value (Total (N=78)) was 8 n and the “TRAE Fatigue” value (Total (N=78)) was 17 n. For the same compound, the “TRAE Hot flush” value (Total (N=78)) was 8 n, the “TRAE Nausea” value (Total (N=78)) was 20 n and the “TRAE Vomiting” value (Total (N=78)) was 8 n. The “Grade 4 or Grade 5 TRAEs” value (cut-off 6 Jun 2022) was “no Grade 4 or Grade 5 TRAEs”, the “patients reporting SAEs” value (cut-off 6 Jun 2022) was 8 of 78 patients and the “total SAEs” value (cut-off 6 Jun 2022) was 11 SAEs. For the same compound, the “Grade 1 TEAEs” value (cut-off 6 Jun 2022, N=78) was 34.6%, the “Grade 1 TRAEs” value (cut-off 6 Jun 2022, N=78) was 42.3% and the “Grade 2 TEAEs” value (cut-off 6 Jun 2022, N=78) was 39.7%. For the same compound, the “Grade 2 TRAEs” value (cut-off 6 Jun 2022, N=78) was 21.8%, the “Grade 3 TEAEs” value (cut-off 6 Jun 2022, N=78) was 11.5% and the “Grade 3 hypertension” value (cut-off 6 Jun 2022, N=78) was 2 patients. For the same compound, the “Grade 4 TEAEs” value (cut-off 6 Jun 2022, N=78) was 3.8%, the “Grade 5 TEAE” value (cut-off 6 Jun 2022, N=78) was 1.3% and the “TEAE of Grade ≥3” value (cut-off 6 Jun 2022, N=78) was 16.7%. For the same compound, the “patients with Grade 3 TRAEs” value (cut-off 6 Jun 2022, N=78) was 5.1%, the “patients with at least 1 TEAE” value (cut-off 6 Jun 2022, N=78) was 91.0% and the “patients with at least 1 TRAE” value (cut-off 6 Jun 2022, N=78) was 69.2%. For the same compound, the “TEAE leading to discontinuation” value (five of 83 patients) was 6.0%.

From patent US20260069588A1, “VEPDEGESTRANT FOR USE IN TREATING CANCER” (Arvinas Operation, Inc., priority 2022, published 2026)
